Results taken from US11589584B2, “Synergistic combination of 1,3-bis(hydroxymethyl)-5,5-dimethylimidazolidine-2,4-dione with glyoxal” (MC (US) 3 LLC, priority 2018, dated 2023).

Tested on: Pseudomonas aeruginosa (ATCC 8739) and Escherichia coli (ATCC 10145) mixed microorganism culture
Experiment: Synergy in the planktonic phase: 48 h biocide challenge, regrowth read by turbidity in recovery media
Type: cell-based
Conditions: P. aeruginosa/E. coli mixed inoculum, phosphate buffer pH 7.3, 30° C., 48 hour challenge
Protocol: […] cultures were separately prepared from glycerol stocks. First they were streak plated and validated with a microscope. Single colonies were picked and used to inoculate 200 mL shake flasks that were grown statically overnight at 30° C. (30 grams/L Tryptic Soy Broth) to produce the initial inoculum of mixed microorganism culture. A deep-well 96 well challenge plate (2 mL maximum well volume) was prepared using 900 μL/well phosphate buffer at pH 7.3, (0.0027M potassium chloride, 0.137 M sodium chloride). Inoculation took place at the start of the experiments (with a 100 μL combined inoculum, adding to the 900 μL buffer to total 1 mL/well). […]
The inoculated assay block was challenged at 30° C. for 48 hours. […] This was done in triplicate for each point (the triplicate is already present in the biocide block viz. each point is truly determined in triplicate). […]
The recovery plates were subsequently read (checked for microbial growth) at 72 hours after addition of the culture, to recovery media. Ranking of biocidal efficacy was done by recording the development of turbidity within each well (determined by visual inspection). […] Ranking was done per average value of three data points determined per experiment. (Recorded in log regrowth).
Synergy Ratio Determined Using the Following Formulae. […]

Row | Structure (SMILES) | DMDMH standalone 48 h pass (biocide used alone (QA)) [ppm] | Glyoxal standalone 48 h pass (used alone (QB)) [ppm]
1 | CC1(C)C(=O)N(CO)C(=O)N1CO [DMDMH, 1,3-Bis(hydroxymethyl)-5,5-dimethylimidazolidine-2,4-dione] | 420 | 
2 | O=CC=O [Glyoxal, oxaldehyde] |  | 1800
